Data reported in patent US20210015793A1, “COMPOUNDS FOR TREATING CNS- AND NEURODEGENERATIVE DISEASES” (ETH ZURICH, priority 2018, published 2021).

Tests used:
[1] = test system: female B6 mice; assay: Aging-induced decrease in fertility in female B6 mice; format: in vivo, mouse; conditions: 8 mg/kg/d in drinking water from 3 to 21 months of age, vs untreated controls
Protocol: (A,B) Treatment of B6 mice with Compound-1 (A) and Compound-1F (B) at a daily dose of 8 mg/kg/d in drinking water was started at an age of 3 months and continued until the end of the observation period at 21 months. The age of the male breeder(s) was <10 months. The number of offspring per month is given (±s.d.; n=5; p=0.0167 for Compound-1, and p=0.0032 for Compound-1F compared to untreated controls; unpaired, two-tailed Student's t-test).

[2] = test system: Mpp1; assay: Immunoblot of Mpp1 protein content in PBMN cells of aged B6 mice; format: in vivo, mouse; conditions: 18-month-old B6 mice treated for 15 months in drinking water
Description: For protein separation by SDS-PAGE (Laemmli system), the protein pellet can be dissolved in SDS-PAGE sample buffer supplemented with SDS. As an alternative, sample buffer for native gel electrophoresis can be added. According to the original protocol, the SDS-PAGE Laemmli sample buffer contains 2% SDS, 0.1 M DTT (or 5% mercaptoethanol). To improve disaggregation of aggregated proteins, the buffer can be supplemented without or with urea ranging from about 0 M-8 M, preferably about 6 M urea and incubated for about 10 min to 24 h, preferably about 90 min at room temperature. Proteins can be stored frozen (about […]) at a concentration ranging from about 0.01-100 mg/ml, preferably about 0.5 mg-1 mg/ml, for further use. It may be further desirable to dilute the solubilisate, for example, diluting the supernatant solubilisate by 1:1-1:20, preferably 1:5, in a suitable buffer as described above (preferably supplemented with protease inhibitors). Before immunoblot detection of proteins, proteins are separated. For separation of proteins, one- or two-dimensional SDS-PAGE can be applied. […]

[3] = Serum concentration by HPLC in dogs after oral dosing; format: in vivo, dog; conditions: for steady-state serum concentrations of Compound-1 and Compound-1F compared: 28 days once daily oral dosing, 24 h after the last dose; for oral bioavailability: oral treatment; for dog dose roughly equivalent to 8 mg/kg/day in mice (by steady-state serum concentration): mice given compound in drinking water, dogs 28 days once daily oral dosing
Protocol: (§1) Dog serum concentrations of Compound-1, Compound-1F and Compound-4 were determined with serum isolated from the blood of German shepherd dogs (age: 8-9 months) taken at different time points (2 h, 4 h, 6 h, 8, 10 h, 24 h) after oral drug intake. The steady-state serum concentrations of Compound-1, Compound-1F and Compound-4 were determined in mice with blood isolated at the end of the study by cardiac puncture. Serum proteins were removed by acetonitrile precipitation, and compounds were extracted by chloroform before separation on an HPLC-C18 column (Poroshell 120 EC-C18, Agilent) with an HPLC system (Agilent 1100 Series) and detection at OD 280 nm, for Compound-1 and Compound-1F. Detection of Compound-4 was performed at OD 310 nm. The same extraction method was also used to determine Compound-1F in the serum of healthy human research participants. Dog hematology and biochemical parameters were determined by the Center of Applied Analytical and Veterinary Studies, Cairo, Egypt. ECG and blood pressure were measured by Dr. Mohamed Elsaed, Electrocardiography Unit, Faculty of Veterinary Medicine, Cairo University. The study was approved by the ethical committee of the Center of Applied and Veterinary Studies, Cairo, Egypt. Clinical laboratory parameters of human research participants were determined by the Rabaa El Adaweya Medical Central Hospital, Cairo, Egypt.

[4] = 28-day repeated oral dosing safety in German shepherd dogs; format: in vivo, dog; conditions: for sedation / ECG: P-R interval, QRS interval and Q-T interval before vs after treatment / blood levels of AST, ALT, ALP, BUN and fasting blood glucose / hematologic parameters (Hb, HCT, RBCs, MCV, MCHC) before vs after treatment / total number of white blood cells / systolic and diastolic blood pressure / heart rate / tolerability: dogs; for ECG: P-R interval, QRS interval and Q-T interval before vs after treatment / blood levels of AST, ALT, ALP, BUN and fasting blood glucose / hematologic parameters (Hb, HCT, RBCs, MCV, MCHC) before vs after treatment / total number of white blood cells: once daily 60, 120 and 200 mg for 28 days; for systolic and diastolic blood pressure: once daily 60, 120 and 200 mg/d for 28 days; for heart rate: repeated oral dosing for 28 days; for tolerability: therapeutic dose range; for body weight: male and female dogs, once daily 20, 60, 120 and 200 mg/d for 28 days
Protocol: as §1

[5] = test system: male B6 mice; assay: Aging-induced deterioration of male sperm quality in B6 mice; format: in vivo, mouse; conditions: 18-month-old male B6 mice, 15 months treatment
[6] = dogs, oral gavage, single dose of 60 mg

Structure (SMILES) | female fertility (number of offspring per month) [1] | Mpp1 protein content in PBMN cells [2] | steady-state serum concentrations of Compound-1 and Compound-1F compared ([3]; dogs) | oral bioavailability ([3]; dogs) | dog dose roughly equivalent to 8 mg/kg/day in mice (by steady-state serum concentration) [3] [mg/kg day] | sedation ([4]; daily dose of 120 mg/d) | sedation ([4]; highest dose of 200 mg) | ECG: P-R interval, QRS interval and Q-T interval before vs after treatment [4] | blood levels of AST, ALT, ALP, BUN and fasting blood glucose [4] | hematologic parameters (Hb, HCT, RBCs, MCV, MCHC) before vs after treatment [4] | total number of white blood cells [4] | systolic and diastolic blood pressure [4] | heart rate [4] | tolerability [4] | body weight [4] | aging-induced epididymal degeneration (H&E sections of cauda epididymis) [5] | other results
O=C(C1=C(O)C(c2ccc(F)cc2)N(c2ccc3c(c2)OCO3)C1=O)C1CC1 (centres unmarked) [Compound-1F, 1-(1,3-Benzodioxol-5-yl)-4-(cyclopropanecarbonyl)-2-(4-fluorophenyl)-3-hydroxy-2H-pyrrol-5-one] | retarded aging-induced decrease in fertility | significantly decreased the content of the senescence marker, Mpp1 | comparable | good oral bioavailability | ~0.7 | no sedation | showed sedation | not significantly different | did not significantly alter | not significantly different | not altered | did not significantly change systolic and diastolic blood pressure | did not significantly affect heart rate | excellent tolerability | did not significantly change body weight | prevented | pharmacokinetic profile compared to Compound-1 ([3]; dogs, oral): slower on-rate
O=C(C1=C(O)C(c2ccccc2)N(c2ccc3c(c2)OCO3)C1=O)C1CC1 (centres unmarked) [Compound-1, 1-(1,3-benzodioxol-5-yl)-4-(cyclopropane-carbonyl)-3-hydroxy-2-phenyl-2H-pyrrol-5-one] | retarded aging-induced decrease in fertility | significantly decreased the content of the senescence marker, Mpp1 | comparable | good oral bioavailability | ~0.7 | no sedation | showed sedation | not significantly different | did not significantly alter | not significantly different | not altered | did not significantly change systolic and diastolic blood pressure | did not significantly affect heart rate | excellent tolerability | did not significantly change body weight | prevented | dose dependence of peak serum concentration ([3]; dogs, 28 days repeated once daily dosing, 20, 60, 200 mg/day): dose-dependent increase in the peak serum concentration; time to peak serum concentration ([3]; dogs, day 28 of repeated once daily dosing, 20, 60 and 200 mg/day): 4 h; peak serum concentration [3, 6]: 2 µg/mL; time to peak serum concentration [3, 6]: 4 h; time to peak serum concentration ([3]; dogs, oral gavage, single dose of 200 mg): 6 h
